# Results: patent US20230364065A1, “ANTIBIOTIC COMBINATION THERAPIES” (BIOVERSYS AG, priority 2022, published 2023)
# Read-outs that look alike come from different tables or passages of the source.
# Key:
# [1] = tested on: A. baumannii Pop1 and Pop2 strains; test: Rifabutin MIC of the strains used for time-kill curves; format: cell-based; details: Acinetobacter baumannii
# [2] = tested on: carbapenem-resistant Acinetobacter baumannii (CRAB); details: MHA/PIH, cited from earlier work
# [3] = tested on: carbapenem-resistant Acinetobacter baumannii (CRAB); details: RPMI/FCS, broth microdilution, panel of 293 CRAB; cited from earlier work
# [4] = tested on: A. baumannii Pop1 and Pop2 strains; test: Time kill curves in CAMHB with 0.1 mM PIH; format: cell-based, Acinetobacter baumannii
# Description: Based on the data of EXAMPLE 1, the bactericidal activity and the resistance development of rifabutin and of fixed rifabutin/polymyxin concentrations was assessed in time-kill curve experiments. […] FIGS. 3 and 4 show kill curve experiments on two different A. baumannii strains (Pop 1 and Pop2) having very different rifabutin MICs.
# Based on the data of EXAMPLE 2, the bactericidal activity and the resistance development of rifabutin/polymyxin B was assessed in time kill curve experiments using a lower concentration of rifabutin and additional strains. Concentrations were fixed at 0.03 mg/L for rifabutin (on average, one thirty-second the rifabutin MIC90), and at 0.125 or 0.06 mg/L for polymyxin B (one fourth and one eighth the fCtrough of polymyxin B).
# Time-kill kinetics were performed in CAMHB supplemented with 0.1 mM PIH medium. Rifabutin was tested at 0.25 mg/L with or without the specified concentration of a polymyxin agent. Samples were taken at 0, 2, 4, 8 and 24 hours in order to determine the colony forming units (cfu). Bactericidal activity is defined as ≥3-log reduction in cfu compared to the cfu present in the inoculum (0 hours).
# [5] = tested on: A. baumannii clinical isolates; test: Rifabutin MIC with a fixed polymyxin concentration, broth microdilution in CAMHB/PIH; format: cell-based, Acinetobacter baumannii
# Description: (§1) The MIC90 (the maximum Minimal Inhibitory Concentration which inhibits growth of 90% of the strains of a test panel) of rifabutin is 2 or 1 mg/L when tested respectively in RPMI/FCS for broth microdilution or MHA/PIH for agar dilution against a panel of 293 carbapenem-resistant Acinetobacter baumannii (CRAB) (Trebosc V, et al. 2020. In vitro activity of rifabutin against 293 contemporary carbapenem-resistant Acinetobacter baumannii clinical isolates and characterization of rifabutin mode of action and resistance mechanisms. J Antimicrob Chemother. 75(12):3552-3562, incorporated herein by reference). […] At these respective polymyxin concentrations, no strains, 3% of the strains, and <5% of the strains would be susceptible to the respective polymyxin. FIG. 1 illustrates the cumulative index and MIC50 and MIC90 of rifabutin in the presence of members of the polymyxin family of antibiotics at sub MIC (sub trough concentrations) showing the synergistic effect discussed above.
# (§2) In vitro activity of rifabutin against 293 contemporary carbapenem-resistant Acinetobacter baumannii clinical isolates and characterization of rifabutin mode of action and resistance mechanisms. J Antimicrob Chemother. 75(12):3552-3562, incorporated herein by reference in its entirety). […] FIG. 2 illustrates the MIC distribution of rifabutin in the presence of members of the polymyxin family of antibiotics at sub MIC (sub trough concentrations) showing the synergistic effect discussed above.
# The rifabutin MICs in combination with a fixed concentration of the specified polymyxin were determined by broth microdilution method according to the CLSI guideline. The medium used to determine the MICs was cation-adjusted Muller Hinton broth (CAMHB) supplemented with 0.1 mM of pyridoxal isonicotinoyl hydrazone (PIH). […] Accordingly, the MIC values were set at the first lowest rifabutin concentration preventing growth as assessed by visual inspection of the assay plate.
# [6] = tested on: A. baumannii clinical isolates; test: Susceptibility of panel strains to the polymyxin alone; format: cell-based, Acinetobacter baumannii; details: for number of strains with MIC>2 mg/L towards the polymyxin: polymyxin alone; for strains susceptible to the polymyxin at the fixed concentration: polymyxin alone at 0.125 mg/L
# Description: as §1, §2
# [7] = Example 2, colistin or polymyxin B alone at 0.125 or 0.03 mg/L, Pop 1 and Pop2 strains
compound,measurement,setting,value
"CO[C@H]1/C=C/O[C@@]2(C)Oc3c(C)c(O)c4c(c3C2=O)C2=NC3(CCN(CC(C)C)CC3)NC2=C(NC(=O)/C(C)=C\C=C\[C@H](C)[C@H](O)[C@@H](C)[C@@H](O)[C@@H](C)[C@H](OC(C)=O)[C@@H]1C)C4=O [rifabutin, Rifabutin]",MIC,[1]; A. baumannii Pop 1 strain of FIG. 3,0.016 µg/mL
same,MIC,[1]; A. baumannii Pop2 strain of FIG. 4,1 µg/mL
same,MIC,"[1]; ATCC17978, Pop 1 strain ATCC 17978",0.008 µg/mL
same,MIC,[1]; Pop 1 strain HUMC1,0.002 µg/mL
same,MIC,[1]; Pop2 strain LAC-4,1 µg/mL
same,MIC,[1]; Pop2 strain UNT238-1,2 µg/mL
same,strains in population 1 (rifabutin MICs<0.125 mg/L),[2]; 293 CRAB,72%
same,strains in population 2 (rifabutin MICs≥0.125 to <16 mg/L),[2]; 293 CRAB,27%
same,strains in population 3 (rifabutin MICs≥16 mg/L),[2]; 293 CRAB,1%
same,MIC90 of rifabutin,"[2]; agar dilution, panel of 293 CRAB",1 µg/mL
same,MIC90 of rifabutin,[3],2 µg/mL
same,bactericidal activity in time-kill curves,"[4]; Example 2, rifabutin alone at 0.25 mg/L, Pop 1 and Pop2 strains",either poorly bactericidal or allow for regrowth
same,bactericidal activity in time-kill curves,"[4]; Example 3, rifabutin alone at 0.03 mg/L, Pop1 and Pop2 strains",either poorly bactericidal or allowed for regrowth
same,strains having a rifabutin MIC≤1 mg/L in the presence of a polymyxin,"[5]; CAMHB/PIH broth microdilution, about one-quarter of the fCtrough of the polymyxin",99%
same,MIC90 of rifabutin in the presence of a polymyxin,"[5]; CAMHB/PIH broth microdilution, with 0.125 mg/L polymyxin B, 0.125 mg/L colistin or 0.03 mg/L SPR206 (about one-quarter of fCtrough)",0.06 to 0.25 µg/mL
same,fold lowering of rifabutin MIC90 in the presence of a polymyxin,[5]; subinhibitory concentrations of a polymyxin antibiotic,up to 32 fold
SPR206 acetate,bactericidal activity in time-kill curves,"[4]; Example 2, SPR206 alone at 0.03 mg/L, Pop 1 and Pop2 strains",either poorly bactericidal or allow for regrowth
same,number of strains with MIC>2 mg/L towards the polymyxin,[6],18 strains
colistin sulfate,bactericidal activity in time-kill curves,[4]; [7],either poorly bactericidal or allow for regrowth
same,number of strains with MIC>2 mg/L towards the polymyxin,[6],45 strains
same,strains susceptible to the polymyxin at the fixed concentration,[6],3%
polymyxin B sulfate,bactericidal activity in time-kill curves,[4]; [7],either poorly bactericidal or allow for regrowth
same,bactericidal activity in time-kill curves,"[4]; Example 3, polymyxin B alone at 0.125 or 0.06 mg/L, Pop1 and Pop2 strains",either poorly bactericidal or allowed for regrowth
same,number of strains with MIC>2 mg/L towards the polymyxin,[6],40 strains
same,strains susceptible to the polymyxin at the fixed concentration,[6],no strains
